According to patent US11007162B2, “Methods of reducing small, dense LDL particles” (CymaBay Therapeutics, Inc., priority 2008, dated 2021):

What was measured:
C57BL/6 mice = assay: Intestinal cholesterol absorption by fecal dual isotope ratio method; type: in vivo
Protocol: This study was designed to examine the effect of Compound II on intestinal cholesterol absorption in mice using the fecal dual isotope ratio method. Eight-week-old male C57BL/6 mice were fed standard mouse chow (control) with no added cholesterol (Harlan Teklad diet T.8604) ad libitum. Mice were randomized into five groups: 1) control, water gavaged daily; 2) compound II gavaged daily (in water) at a dose of 3 mg/kg; 3) compound II gavaged daily (in water) at a dose of 10 mg/kg; 4) ezetimibe gavaged daily (in corn oil) at a dose of 5 mg/kg; 5) compound II fed daily as diet admix at a dose of approximately 15 mg/kg. Mice were housed individually and monitored daily for food consumption and body weight. Following eight days of feeding/drug administration, (and 1 hour following gavage of drug), nonfasted, unanesthetized animals were bled and plasma was isolated and flash-frozen at −80° C. for shipment and measurement of concentrations of Compound II and its metabolites. The following day (day 9), mice were gavaged with drug or control. One hour later, each mouse was gavaged with MCT oil containing [^14C]cholesterol and [^3H]sitostanol. Mice were housed individually in metabolic cages and ad libitum feeding and daily gavage of each drug was continued. Feces were collected daily from each animal for a period of 4 days. For each individual mouse, the 4-day feces were pooled, dried, saponified, extracted and counted.
Intestinal cholesterol absorption in age- and gender-matched C57BL/6 mice was determined by the fecal dual isotope ratio method. […] See, FIG. 10. […] Statistical analysis between groups was assessed by unpaired Student's t-test. Statistical significance was defined as a two-tailed probability of less than 0.05.

healthy male subjects = assay: Phase I multiple ascending dose study, 21 days; LDL particle size by GGE and AIM; type: in vivo, human; conditions: for predominant LDL particle size / proportion of small LDL particles: 50, 100 and 200 mg
Protocol: Thirty-six healthy male subjects were treated with the compound of Formula II at 50, 100, and 200 mg for 21 days. To determine the lipoprotein particle sizes in the subjects before and after administration of the compound, gradient-gel electrophoresis (GGE) and Airborne Ion Mobility (AIM) methods were used.
GGE was performed essentially as described in Krauss and Burke, J Lipid Res. 23:97-104 (1982) and La Belle, et al., J. Lipid Res. 38 690-700 (1997) as follows:
LDL particle diameters were determined by nondenaturing 2-14% polyacrylamide gradient gel electrophoresis in 0.09 M Tris/0.08 M borate buffer (pH 8.3), 3 mM EDTA at 8-10° C. Samples (whole plasma) were electrophoresed at 40 V for 15 min, then 80 V for 15 min, and then at 125 V for 24 h to allow all particles to run to their size exclusion limits. Gels were stained for protein with Sudan Black and scanned at 555 nm with a Transidyne RFT densitometer. Particle sizes were calculated from a calibration curve using a high molecular weight reference protyin mixture (Pharmacia Biotech., Piscataway, N.J.), 380 Å latex beads (Duke Scientific Corp., Palo Alto, Calif.) and lipoprotein calibrators that are frozen at −80° C. and included on each gel run. Plasma samples, stored at −80° C. and used as controls for gradient gel analysis procedures, were run in duplicate on each gel. Particle size of LDL peaks in the controls were measured within ±2 Å (coefficient of variation, +1%).
AIM was performed essentially as described in Caulfield, et al., Clin. Chem. 54:1307-1316 (2008), generally as follows:
Serum samples or controls were briefly mixed by vortex mixing, then 5 μl of sample or control was mixed with 20 μl of an albumin removal reagent [7.5 g/L Reactive green 19 dextran (RGD), Sigma-Aldrich; 2.5 g/L dextran sulfate, Sigma-Aldrich; and 0.5 g/L EDTA, Spectrum Chemicals] and incubated on ice for 15 minutes. After incubation, the sample mixture was overlaid on 200 μl deuterium oxide (Medical Isotopes) in a 42.2 ultracentrifuge tube (Beckman Coulter). The samples were ultracentrifuged at 10° C. for 135 min at 223 000 g (42 000 rpm), and then the top 85 μl (i.e., the lipid fraction) of the sample was removed. The samples were diluted 1:800 for HDL analysis using 25 mmol/L ammonium acetate, 0.5 mmol/L ammonium hydroxide, pH 7.4. For LDL analysis, samples were diluted 1:200 with the same diluent containing 5 μg/mL dextran sulfate to help prevent LDL particles from sticking to the capillary surfaces. Final dilutions were made in deep-well 96-well plates and placed in a Leap HTLC Pal autosampler (Eksigent) with the cooled stack maintained at 6° C.
The autosampler was connected to the electrospray generator (Model 3480; TSI) via methyl-deactivated silica capillary (50 μm i.d.; SGE). Flow was introduced by nano-LC pumps (Eksigent) running a mobile phase of 25 mmol/L ammonium acetate, 0.5 mmol/L ammonium hydroxide, pH 7.4. By means of a capillary metal union (Upchurch Scientific), an autosampler injected 10 μl sample at 6 μl/min into a transfer capillary (methyl-deactivated, SGE, 50 μm, 33 cm long). High voltage (2.1 kV) was applied to the metal capillary union located 33 cm upstream of the electrospray unit. The electrospray Taylor cone was monitored visually and amperometrically to ensure stability. After the sample had filled the capillary and reached the electrospray chamber, the flow was decreased to 200 nL/min and the data recording process was started. The gas (containing approximately 5% CO2) flowing into the electrospray chamber was regulated at 1.6 L/min. The electrosprayed particles passed through a particle-charge neutralizing chamber and then entered the differential mobility analyzer (DMA). Se, e.g., U.S. Pat. No. 7,259,018. Scan time was 2 min and covered a particle range of 17.2 to 542.0 Å. […]

human subjects [1] = assay: Absorption of phytosterols (markers of cholesterol absorption) in human subjects, day 21; type: in vivo; conditions: oral daily dose, day 21, FIG. 11
Protocol: In another experiment, human subjects received an oral dose of Compound II at day 1 and daily thereafter and the effect of the drug was assessed on day 21. Phytosterols are poorly absorbed from diet, but are absorbed proportionally with dietary cholesterol and thus serve as good markers of cholesterol absorption.

human subjects [2] = assay: Effect on cholesterol synthesis in human subjects after 21 days; type: in vivo
Protocol: A series of experiments were performed to determine the effect of Compound II on cholesterol synthesis. Compound II was administered to human subjects and the effect on cholesterol ester, acyl-coenzyme A:cholesterol acyltransferase (ACAT) and Lecithin-cholesterol acyltransferase (LACAT) was determined after 21 days. […] The effect of treatment appeared similar between ACAT- and LCAT-derived cholesterol esters, indicating a reduction in cholesterol substrate.

overweight subjects = assay: Second clinical study: LDL particle size pattern and blood chemistry in overweight subjects; type: in vivo, human
Protocol: A second clinical study to determine the effect of the Compound of Formula II on LDL particle size in overweight subjects was performed. Subjects in this study met the following criteria: Non-Diabetic; untreated or diet-treated, with fasting lipids at initial screening and visit 2 (after 4 week run-in): […] Subjects were males with waist circumference greater than 38″ or females with waist circumference greater than 33″. Data was generated in this second study from 181 subjects. […] Of the 28 subjects that remained in the study in the placebo group, there was a net loss of subjects having LDL pattern A.

[3] = 21 days, listed as compound of Formula II
[4] = phase I multiple ascending doses samples, FIG. 1
[5] = MBX-8025 50 mg, Week 0 (before treatment)
[6] = MBX-8025 100 mg, Week 0 (before treatment)
[7] = Atorvastatin 20 mg, Week 0 (before treatment)

With CCOC(COc1ccc(C(F)(F)F)cc1)CSc1ccc(OCC(=O)O)c(C)c1 (centres unmarked) [Compound II] the “reduction in cholesterol absorption versus control (printed as negative change)” value (C57BL/6 mice; admix to diet, approximate dose 15 mg/kg/d, p<0.0006) was −45%, the “change in cholesterol absorption versus control” value (C57BL/6 mice; gavage, 3 mg/kg/d, no significant change) was −8% and the “reduction in cholesterol absorption versus control” value (C57BL/6 mice; gavage, 10 mg/kg/d, significant) was 29.4%. For the same compound, the “shift of LDL subclass pattern” value (healthy male subjects; 50, 100 and 200 mg dosage, day 21 vs day 1, GGE) was “from LDL Pattern B or I to LDL Pattern A”, the “predominant LDL particle size” value (healthy male subjects; 21 days, listed as compound II) was “increased” and the “proportion of small LDL particles” value (healthy male subjects; 21 days, listed as compound II) was “lowered”. For the same compound, the “predominant LDL particle size” value (healthy male subjects; [3]) was “effectively increased”, the “proportion of small LDL particles” value (healthy male subjects; [3]) was “decreasing the amount of smaller LDL particles” and the “predominant LDL particle size” value (healthy male subjects; 21 days, listed as drawing 12) was “effective in improving”. The VLDL particle size (healthy male subjects; 21 days) was “did not affect”, the LDL particle distributions (healthy male subjects; 21 days, by dose) was “did affect LDL particle distributions in dose dependent fashion” and the “Apolipoprotein B” value (healthy male subjects; [4]) was “significantly lowered”. The LDL-cholesterol (healthy male subjects; [4]) was “significantly lowered”, the Stigmasterol (human subjects [1]) was “not significantly affected” and the campesterol (human subjects [1]) was “significantly decreased”. For the same compound, the β-sitosterol (human subjects [1]) was “significantly decreased”, the “Lanosterol (cholesterol synthesis intermediate) in blood” value (human subjects [2]; FIG. 9) was “decreased in a dose-dependent fashion” and the “desmosterol (cholesterol synthesis intermediate) in blood” value (human subjects [2]; FIG. 9) was “decreased in a dose-dependent fashion”. The “lathosterol (cholesterol synthesis intermediate) in blood” value (human subjects [2]; FIG. 9) was “decreased in a dose-dependent fashion”, the “cholesterol concentrations (ACAT- and LCAT-derived cholesterol esters)” value (human subjects [2]; after 21 days) was “decreased cholesterol concentrations in a dose-dependent fashion” and the “LDL pattern results compared with control group treated with Atorvastatin” value (overweight subjects; 50 mg and 100 mg) was “superior”. For the same compound, the “number of subjects having pattern A (in words)” value (overweight subjects; 100 mg) was “increase”, the “number of subjects having pattern B (in words)” value (overweight subjects; 100 mg) was “large decrease” and the “Apo B-100” value (overweight subjects; FIG. 6) was “reduced”. The HDL levels (overweight subjects; FIG. 6) was “increased”, the LDL (overweight subjects; FIG. 6) was “reduced” and the total cholesterol (overweight subjects; FIG. 6) was “reduced”. For the same compound, the triglycerides (overweight subjects; FIG. 6) was “reduced”, the “percentage of individuals having LDL pattern A over time” value (overweight subjects; FIG. 7) was “went up dramatically” and the “percentage of individuals having LDL pattern B over time” value (overweight subjects; FIG. 8) was “went down dramatically”. The “number of subjects having LDL Pattern A” value (overweight subjects; [5]) was 8, the “number of subjects having LDL Pattern B” value (overweight subjects; [5]) was 13 and the “number of subjects having LDL Pattern I” value (overweight subjects; [5]) was 7. The “number of subjects having LDL Pattern A” value (overweight subjects; MBX-8025 50 mg, Week 4) was 24, the “number of subjects having LDL Pattern B” value (overweight subjects; MBX-8025 50 mg, Week 4) was 3 and the “number of subjects having LDL Pattern I” value (overweight subjects; MBX-8025 50 mg, Week 4) was 0. The “number of subjects having LDL Pattern A” value (overweight subjects; MBX-8025 50 mg, Week 8) was 25, the “number of subjects having LDL Pattern B” value (overweight subjects; MBX-8025 50 mg, Week 8) was 2 and the “number of subjects having LDL Pattern I” value (overweight subjects; MBX-8025 50 mg, Week 8) was 2. For the same compound, the “number of subjects having LDL Pattern A” value (overweight subjects; [6]) was 6, the “number of subjects having LDL Pattern B” value (overweight subjects; [6]) was 20 and the “number of subjects having LDL Pattern I” value (overweight subjects; [6]) was 7. The “number of subjects having LDL Pattern A” value (overweight subjects; MBX-8025 100 mg, Week 4) was 25, the “number of subjects having LDL Pattern B” value (overweight subjects; MBX-8025 100 mg, Week 4) was 1 and the “number of subjects having LDL Pattern I” value (overweight subjects; MBX-8025 100 mg, Week 4) was 4. The “number of subjects having LDL Pattern A” value (overweight subjects; MBX-8025 100 mg, Week 8) was 25, the “number of subjects having LDL Pattern B” value (overweight subjects; MBX-8025 100 mg, Week 8) was 2 and the “number of subjects having LDL Pattern I” value (overweight subjects; MBX-8025 100 mg, Week 8) was 2.

O=C1[C@H](CC[C@H](O)c2ccc(F)cc2)[C@@H](c2ccc(O)cc2)N1c1ccc(F)cc1 [ezetimibe, reference compound] was tested, and the “reduction in cholesterol absorption” value (C57BL/6 mice; gavage in corn oil, 5 mg/kg/d, positive control, p<0.0000005) was 56.4%.

In the case of CC(C)c1c(C(=O)Nc2ccccc2)c(-c2ccccc2)c(-c2ccc(F)cc2)n1CC[C@@H](O)C[C@@H](O)CC(=O)O [Atorvastatin, reference compound], the “number of subjects having LDL Pattern A” value (overweight subjects; [7]) is reported as 9, the “number of subjects having LDL Pattern B” value (overweight subjects; [7]) is reported as 15 and the “number of subjects having LDL Pattern I” value (overweight subjects; [7]) is reported as 5. The “number of subjects having LDL Pattern A” value (overweight subjects; Atorvastatin 20 mg, Week 4) was 12, the “number of subjects having LDL Pattern B” value (overweight subjects; Atorvastatin 20 mg, Week 4) was 10 and the “number of subjects having LDL Pattern I” value (overweight subjects; Atorvastatin 20 mg, Week 4) was 6. For the same compound, the “number of subjects having LDL Pattern A” value (overweight subjects; Atorvastatin 20 mg, Week 8) was 13, the “number of subjects having LDL Pattern B” value (overweight subjects; Atorvastatin 20 mg, Week 8) was 13 and the “number of subjects having LDL Pattern I” value (overweight subjects; Atorvastatin 20 mg, Week 8) was 3. For the same compound, the HDL levels (overweight subjects; FIG. 6) was “no effect”.
